Legend:
[1] = In vitro osmotic pressure test (Vapro Pressure Osmometer); type: physicochemical; conditions: versus sorbitol solution at the same mass concentration 30%
Text: Instrument: Vapro Pressure Osmometer
Materials: L-Arabinose (Prepared According to the Method of Example 1); Sorbitol (Commercially Available Chinese Medicinal Agent)
Procedure: The 4 numbered solutions were each prepared according to the material proportions shown in Table 2 and stirred until they were all clear and transparent.

[2] = Saturation curve and crystallization curve of L-arabinose; type: physicochemical; conditions: for Crystallization mass concentration: cooling 1 °C/h, stirring 100 rpm; for Saturation mass concentration: water
Method: A round-bottom flask was plated in a constant-temperature box with temperature control. To a three-necked round-bottom flask (one flask mouth was plugged with a plastic stopper as a sampling mouth, one flask mouth was used for placing a stirrer, and one flask mouth was used for temperature sensing) were added a certain amount of ionized water and excessive L-arabinose crystal (prepared according to the method of Example 10). The mixture was stirred at 40° C., 49° C., 53° C., 58° C. and 65° C. for 3 h per temperature point, and then let stand for 4 h to allow the undissolved L-arabinose crystal to completely settle. Then the supernatant was collected and filtered through a microporous filter membrane (for filtration using a small injection needle in the constant-temperature box to eliminate the effect of temperature change). The resulting clear liquid was used for concentration determination. A saturation curve was plotted for arabinose: y=0.5927x+23.089 (correlation coefficient R 2=0.99) (see FIG. 4). Clear sugar liquids in which corresponding mass concentrations of L-arabinose were dissolved was prepared, then slowly cooled (1° C./h), and cooled at a constant rate (with stirring at 100 rpm). The crystallization temperature of the sugar liquids with different mass concentrations was observed and recorded. A crystallization curve was plotted for arabinose: y=0.4163x+40.413 (correlation coefficient R 2=1) (see FIG. 4 and Table 15-1).

Percent increase in osmotic pressure [1]: 22.8% | Supersaturation coefficient ([2]; 40 °C): 1.233 | Crystallization mass concentration ([2]; 40 °C): 57.07% | Supersaturation coefficient ([2]; 49 °C): 1.154 | Crystallization mass concentration ([2]; 49 °C): 60.81% | Supersaturation coefficient ([2]; 53 °C): 1.134 | Crystallization mass concentration ([2]; 53 °C): 62.48% | Supersaturation coefficient ([2]; 58 °C): 1.135 | Crystallization mass concentration ([2]; 58 °C): 64.56% | Supersaturation coefficient ([2]; 65 °C): 1.097 | Crystallization mass concentration ([2]; 65 °C): 67.47% | Saturation mass concentration ([2]; 40 °C): 46.3% | Saturation mass concentration ([2]; 49 °C): 52.7% | Saturation mass concentration ([2]; 53 °C): 55.1% | Saturation mass concentration ([2]; 58 °C): 56.9% | Saturation mass concentration ([2]; 65 °C): 61.5%
Compound: O[C@@H]1[C@@H](O)[C@@H](O)OC[C@@H]1O [L-arabinose, β-L-(+)-arabinose]

Reference: patent US12655169B2, “Arabinose and preparation and use thereof” (THOMSON BIOTECH (XIAMEN) PTE. LTD., priority 2022, dated 2026)
